The term fraction unbound denotes the share of the substance not bound to proteins or other matrix.

Each structure is given as a SMILES string. Read-outs that look alike come from different tables or passages of the source.

Data set [1] relates to phosphorylation of Rb protein at serines 807/811 in OVCAR3 cells. The data set is described as follows: Phospho-Serine 807/811 Rb ELISA in OVCAR3 cells. The data set is classed as cell-based. The settings on record: Homo sapiens, read-out: IC50 ± SEM, modulation of pRB Serine 807/811. As to the method: (§1) Cellular CDK activity of Compound 1 and PF-06873600 were assessed in human CCNE1-amplified ovarian cancer cell line model OVCAR3 and human ER+ breast cancer cell line model MCF7 cells. […] OVCAR3 cells were treated overnight with 1 mM hydroxyurea to enrich for G1/S phase cells prior to treatment with inhibitors. Functional effects were measured in a 7-day anti-proliferation assay in one human ovarian cancer (OVCAR3), two human ER+ breast cancer (MCF7 and T47D) and three human non-small cell lung cancer (NCIH2087, NCIH358 and A549) cell line models.
OVCAR3 or MCF7 cells were seeded at 25,000 cells/well in 100 μL growth media and allowed to adhere at 37° C. with 5% CO2 overnight. OVCAR3 cells were treated overnight with 1 mM hydroxyurea to enrich for G1/S phase cells prior to treatment with inhibitors. The following day, compounds were serially diluted from a 10 mM top dose for an 11-point 3-fold dilution curve in DMSO. Compound 1 and PF-06873600 were intermediately diluted 1:200 into growth media prior to diluting 1:5 on cells for final concentration 10 μM to 0.1 nM in 0.1% DMSO on cells. […] Plates were read in luminescence mode and IC50 values calculated.
The cellular activity of Compound 1 was evaluated in ER+, HER2− MCF7 cells and CCNE1-amplified ovarian carcinoma. Activity was determined by inhibition of phosphorylation of […]

The nature of data set [2]: Human plasma protein binding (equilibrium dialysis). The data set is classed as in vitro ADME. The conditions noted are these: 6-hour incubation, pH 7.4, read-out: fup: human plasma unbound fraction. How it is done: Frozen plasma in K3EDTA was purchased from BiolVT and Dulbecco's phosphate buffered saline (DPBS) and HCl were purchased from Sigma. Human plasma unbound fraction (fu r) was determined by equilibrium dialysis using an HTD 96 device (HTDialysis, LLC, Gales Ferry, CT) assembled with 12-14k MWCO membranes. Plasma was thawed and adjusted to pH 7.4 with 1 N HCl prior to use. Dialysis chambers were loaded with 150 μL plasma and 150 μL PBS in the donor and receiver chambers, respectively. The dialysis plate was sealed with a gas-permeable membrane and stored in a 37° C. water-jacked incubator maintained at 75% relative humidity and 5% CO2, on a 100 rpm plate shaker. After a 6-hour incubation, samples were matrix-matched and quench by protein precipitation, followed by LC-MS analysis. A set of satellite samples was included to measure stability after a 6-hour incubation. Incubations were conducted with 4 to 12 replicates. The fup was calculated by dividing the analyte-to-internal standard peak area ratio or analyte concentration in the buffer sample by the signal in the donor sample, corrected for any dilution factors.
In general terms: In equilibrium dialysis only unbound substance equilibrates across the membrane.

A short description of data set [3]: Prediction of human clearance, volume of distribution and elimination half-life. The conditions noted are these: for Mean Vdss unbound: (mean animal Vdss unbound values): Wistar-Hannover (rat), rat and/or dog, iv; for CLb: predicted total clearance: scaled from CLint HHEP and fub, Q=20 ml/min/kg. How it is done:
To determine and compare the predicted human elimination half-lives, compounds 1-4 were evaluated for their human blood-to-plasma partition ratio (BPR) along with other key in vitro ADME data including metabolic stability in human hepatocytes (CL, nt HHEP).
The predicted total clearance in human (CLb) was first determined based on the in vitro human metabolism data shown below using the equation:
CLb=(Q·fub·CLintHHEP)/[(Q+fub)·CLintHHEP]
(Scaling Clint HHEP from μl/min/M to ml/min/kg based on hepatocellularity (120×10^6/ g liver), g of liver per Kg bodyweight (21g/Kg), assuming hepatocyte binding is negligible and liver blood flow Q=20 ml/min/kg.)
The projected human volume of distribution at steady state in human blood (Vdss_human) was then calculated based on the animal (rat and/or dog) PK data. The Vdss_human was calculated factoring in differences in blood binding across compounds. Due to the high blood-to-plasma partition ratio in Compounds 1 and 4, the corresponding Vdss_human was limited to the blood volume with Vdss_human estimated to be 0.07 L/Kg.
Using the estimates of CLb and Vdss_human, the predicted human elimination half-lives of compounds 1-4 were calculated according to the equation:
Half-life=0.693·Vdss_human/CLb

A short description of data set [4]: Human blood binding (fub = fup/BPR). The conditions noted are these: fup divided by BPR. The data set is classed as in vitro ADME. As to the method: Compound 1 has been evaluated according to methods well known in the art, for its ability to partition between human plasma and blood. Based on the observed partitioning and plasma protein binding, the blood binding was estimated based on human blood unbound fraction (fub)=human plasma unbound fraction (fup)/human blood-to-plasma partition ratio (BPR). Human blood unbound fraction (fub) was calculated by dividing fup by BPR.

For data set [5], the system named is NCIH358. Description: Cell proliferation assay (CYQUANT, 7 days), NCIH358. The conditions noted are these: Homo sapiens, NCI-H358, 168 h, read-out: IC50 ± SEM, proliferation inhibition. Type of data set: cell-based. As to the method:
as §1
(§2) OVCAR3, MCF7, T47D, HCC1428, NCIH2087, NCIH358 or A549cells were seeded 1-3000 cells/well in 96-well plates in growth media containing 10% FBS and cultured overnight at 37° C. 5% CO2. The following day, compounds were serially diluted from a 10 mM top dose for an 11-point 3-fold dilution curve in DMSO. […] CYQUANT Direct Cell Proliferation Assay (Molecular Probes, Eugene, OR) was then performed following manufacturer recommendations to determine the relative viable cell numbers on the Perkin Elmer Envision 2104 Multi Label Reader at 508 nm excitation and 527 nm emission wavelengths. IC50 values were calculated by concentration-response curve fitting utilizing a four-parameter analytical method using GraphPad Prism software.

Data set [6] deals with MCF7 parental. Description: Cell proliferation assay (CYQUANT, 7 days), MCF7 parental. The data set is classed as cell-based. The conditions noted are these: Homo sapiens, read-out: IC50 ± SEM, proliferation inhibition. How it is done:
as §1, §2

With `C[C@@]1(O)CCC[C@H]1n1c(=O)c(CC(F)F)cc2cnc(NC3CCN(S(N)(=O)=O)CC3)nc21` [Compound 1, 4-({6-(2,2-difluoroethyl)-8-[(1R,2R)-2-hydroxy-2-methylcyclopentyl]-7-oxo-7,8-dihydropyrido[2,3-d]pyrimidin-2-yl}amino)piperidine-1-sulfonamide], the IC50 in data set [1] (OVCAR-3, OVCAR3, mean, treated 1 h after overnight 1 mM hydroxyurea) is 16.2 nM. Besides, the fraction unbound at 6 h in data set [2] is 0.174. In addition, the “Mean Vdss unbound: (mean animal Vdss unbound values)” value in data set [3] is 8.8 L/kg. In data set [3] (human), the “(adjusted) predicted t1/2 based on PF-06873600's observed t1/2” value was 34 h, the “Vdss—human limited to the blood volume (lower limit)” value was 0.07 L/kg, the “Vdss—human: projected volume of distribution (steady state)” value was 0.019 L/kg L/Kg and the “CLb: predicted total clearance” value is 0.011 mL/min/kg. In data set [4], this molecule gave a fraction unbound of 0.0022. Besides, in data set [5] (NCIH358, 7 days, mean), the IC50 came to 21 ± 2.2 nM. Also, the IC50 in data set [6] (168 h, MCF7 parental, 7 days, mean) is 16.8 ± 6.7 nM.
Turning to `C[C@@]1(O)CCC[C@H]1n1c(=O)c(C(F)F)cc2cnc(NC3CCN(S(C)(=O)=O)CC3)nc21` [Compound 2, reference compound], the IC50 in data set [1] (OVCAR-3, 1 h) stood at 21.8 nM; in data set [5], 39 nM; in data set [6] (MCF7, 168 h), 38.6 ± 10.2 nM. The fraction unbound at 6 h in data set [2] amounted to 0.288. Moreover, the “Mean Vdss unbound: (mean animal Vdss unbound values)” value in data set [3] was 2.8 L/kg. In addition, the “Vdss—human: projected volume of distribution (steady state)” value in data set [3] (human) was 0.9 L/kg. For the same molecule, the “CLb: predicted total clearance” value in data set [3] (human) is 1.5 mL/min/kg. This molecule registered a fraction unbound in data set [4] of 0.32.

The values are drawn from patent US20240140947A1, “COMPOUND FOR THE TREATMENT OF CANCER” (priority 2022, published 2024).
